Results on 1 compound are retold here after US11345914B2, “Composition for delivering nucleic acid and nucleic acid-containing composition” (TOKYO UNIVERSITY OF PHARMACY AND LIFE SCIENCES, priority 2017, dated 2022).

Each structure is given as a SMILES string.

This assay relates to CIA (Collagen-Induced Arthritis) Mouse. Briefly: In vivo evaluation arthritis treatment effect of CIA mice. The note with it: until 15th day, siRNA (RelA) 20 μg/day tail vein (composition as Example 24, N/P 20), MTX 90 μg intraperitoneal. As for the experimental part: Under ice-cooling, while adding an equal amount of type II collagen solution (2 mg/mL) dropwise to complete Freund's adjuvant (CFA), the mixture was homogenized to prepare an emulsion. Similarly, while adding an equal amount of type II collagen solution (2 mg/mL) dropwise to incomplete Freund's adjuvant (IFA), the mixture was homogenized to prepare an emulsion. The prepared emulsion was confirmed to have formed a w/o type emulsion by maintaining a sphere even when it was dropped on the water surface, and was used in the experiment.
Using 8-weeks old male DBA/1J mice, CIA mice were prepared. In the following, the schedule for preparing CIA mice is shown. 100 μL of the emulsion obtained from type II collagen and CFA prepared at −21′ day was intradermally administered to the tail root portion to carry out induction of the first immunization. 100 μL of the emulsion obtained from type II collagen and […] prepared at 0th day was similarly intradermally administered to carry out additional induction of the immunization. At this time, the intradermal administration was carried out reliably was confirmed by the fact that the administered site was protruded with white. […]
Thickening of the hindlimb ankle joint portion was measured by using a micrometer. […]
Clinical score was calculated as follows. […]

Consider `CN(Cc1cnc2nc(N)nc(N)c2n1)c1ccc(C(=O)N[C@@H](CCC(=O)O)C(=O)O)cc1` [MTX, methotrexate], for which the “thickening increasing rate of the hindlimbs” value (FIG. 4) was “thickening of the hindlimbs was admitted”. In addition, for the setting “FIG. 5”, the clinical score result is “remarkable increase in the clinical score was admitted”.
